Test results: ChEMBL document CHEMBL5131389, “PSMA-targeted small-molecule docetaxel conjugate: Synthesis and preclinical evaluation” (Eur J Med Chem, 2022)
Converted amounts (≈) assume the structure as drawn.

Experiments:
[1] = Acute toxicity in Wistar rat assessed as coprostasis at 15 to 279 mg/kg, iv administered as pluronic F127 formulation and measured for 14 days; type: organism-based; settings: in vivo, 336 h, dose 15-279 mg/kg, time 14 day
[2] = tested on: CWR22R; test: Antitumor activity against human 22Rv1 cells xenografted in Balb/c nude mouse assessed as tumor growth inhibition at 20 mg/kg, ip administered once in two days for three times and measured 7 days after the end of treatment relative to control; type: functional; settings: 22Rv1, 312 h, time 13 day, read-out: TGI
[3] = Clearance in Albino Wistar rat at 15 mg/kg, iv administered as pluronic F127 formulation measured upto 72 hrs by high-performance liquid chromatography tandem mass spectrometric analysis; type: ADME, organism-based; settings: in vivo
[4] = Chronic toxicity in Soviet Chinchilla rabbit assessed as urine alkalization at 10.17 to 12.21 mg/kg, iv administered as pluronic F127 formulation at 4 intervals for 21 days and observed 3 weeks post last injection; type: organism-based, Oryctolagus cuniculus; settings: in vivo, 2544 h, dose 10.17-12.21 mg/kg, time 106 day
[5] = Chronic toxicity in Soviet Chinchilla rabbit assessed as animal death administered intravenously as pluronic F127 formulation at 4 intervals for 21 days and observed 3 weeks post last injection; set-up: species or system Oryctolagus cuniculus; settings: in vivo, iv, 2544 h, time 106 day
[6] = Aqueous solubility of compound; type: physicochemical
[7] = AUC (0 to infinity) in Soviet Chinchilla rabbit at 8.1 mg/kg, iv administered as pluronic F127 formulation measured upto 72 hrs by high-performance liquid chromatography tandem mass spectrometric analysis; type: ADME, organism-based, Oryctolagus cuniculus; set-up: dose 8.1 mg/kg, time < 72 hrs, route iv; settings: in vivo
[8] = tested on: DU-145; test: Antitumor activity against human DU-145 cells xenografted in BALB/c nude mouse assessed as tumor growth inhibition at 30 mg/kg, ip measured upto 30 days; type: functional; settings: DU-145, 720 h, time <= 30 day, read-out: TGI
[9] = AUC (0 to infinity) in Albino Wistar rat at 15 mg/kg, iv administered as pluronic F127 formulation measured upto 72 hrs by high-performance liquid chromatography tandem mass spectrometric analysis; type: ADME, organism-based; set-up: dose 15 mg/kg, time < 72 hrs, route iv; settings: in vivo
[10] = tested on: DU-145; test: Antitumor activity against human DU-145 cells xenografted in BALB/c nude mouse assessed as reduction in tumor growth index at 30 mg/kg, ip measured upto 30 days; type: functional; set-up: scale not given: the % may be the effect or the level left; settings: time <= 30 day
[11] = tested on: CWR22R; test: Antitumor activity against human 22Rv1 cells xenografted in Balb/c nude mouse assessed as tumor growth inhibition at 10 mg/kg, ip administered once in two days for three times and measured 7 days after the end of treatment relative to control; type: functional; settings: 22Rv1, 312 h, time 13 day, read-out: TGI
[12] = C0 in Albino Wistar rat at 15 mg/kg, iv administered as pluronic F127 formulation measured upto 72 hrs by high-performance liquid chromatography tandem mass spectrometric analysis; type: ADME, organism-based; settings: in vivo
[13] = MRT (0 to t) in Soviet Chinchilla rabbit at 8.1 mg/kg, iv administered as pluronic F127 formulation measured upto 72 hrs by high-performance liquid chromatography tandem mass spectrometric analysis; type: ADME, organism-based, Oryctolagus cuniculus; settings: in vivo
[14] = Acute toxicity in Wistar rat assessed as kidney lesion at 15 to 279 mg/kg, iv administered as pluronic F127 formulation and measured for 14 days; type: organism-based; settings: in vivo, 336 h, dose 15-279 mg/kg, time 14 day
[15] = Half-life in Albino Wistar rat at 15 mg/kg, iv administered as pluronic F127 formulation measured upto 72 hrs by high-performance liquid chromatography tandem mass spectrometric analysis; type: ADME, organism-based; settings: in vivo
[16] = AUC (0 to t) in Soviet Chinchilla rabbit at 8.1 mg/kg, iv administered as pluronic F127 formulation measured upto 72 hrs by high-performance liquid chromatography tandem mass spectrometric analysis; type: ADME, organism-based, Oryctolagus cuniculus; set-up: dose 8.1 mg/kg, time < 72 hrs, route iv; settings: in vivo
[17] = biological target: T1, Liver carboxylesterase (Sus scrofa, UniProt Q29550); test: Stability of the compound in porcine liver esterase assessed as compound remaining measured upto 96 hrs by LCMS based mass spectrometric analysis relative to initial amount; type: ADME; settings: pig, read-out: Stability
T1 sequence (Q29550 whole entry): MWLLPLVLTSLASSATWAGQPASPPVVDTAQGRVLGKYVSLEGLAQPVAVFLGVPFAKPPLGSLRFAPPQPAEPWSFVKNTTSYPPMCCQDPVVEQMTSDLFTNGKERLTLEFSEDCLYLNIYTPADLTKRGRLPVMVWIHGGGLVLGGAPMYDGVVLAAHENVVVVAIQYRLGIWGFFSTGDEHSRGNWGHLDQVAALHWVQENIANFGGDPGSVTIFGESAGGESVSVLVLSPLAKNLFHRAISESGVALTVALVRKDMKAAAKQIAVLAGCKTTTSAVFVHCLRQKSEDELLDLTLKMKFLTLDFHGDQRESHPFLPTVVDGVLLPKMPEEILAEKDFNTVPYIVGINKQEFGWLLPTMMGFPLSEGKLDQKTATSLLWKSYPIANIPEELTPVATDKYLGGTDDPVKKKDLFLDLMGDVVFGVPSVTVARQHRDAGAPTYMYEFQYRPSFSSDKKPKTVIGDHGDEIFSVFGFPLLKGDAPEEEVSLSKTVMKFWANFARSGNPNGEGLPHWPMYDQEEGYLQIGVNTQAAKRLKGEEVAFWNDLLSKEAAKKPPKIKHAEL

[18] = Chronic toxicity in rat assessed as change in relative heart mass at 15 to 18.75 mg/kg, iv administered as pluronic F127 formulation for 4 intervals of 21 days and observed 3 weeks post last injection relative to control; type: organism-based; settings: in vivo, 2544 h, dose 15-18.75 mg/kg, time 106 day
[19] = Chronic toxicity in rat assessed as reduction in body weight at 15 to 18.75 mg/kg, iv administered as pluronic F127 formulation at 4 intervals for 21 days and observed on 77 th day; type: organism-based; settings: in vivo, 1848 h, dose 15-18.75 mg/kg, time 77 day
[20] = Subchronic toxicity in Wistar rat assessed as cumulative effect of drug at 58 mg/kg, iv administered as pluronic F127 formulation daily for 28 days; type: organism-based; settings: in vivo, 672 h, time 28 day
[21] = Acute toxicity in ICR mouse assessed as coprostasis at 183 to 960 mg/kg, iv administered as pluronic F127 formulation and measured for 14 days; type: organism-based; settings: in vivo, 336 h, dose 183-960 mg/kg, time 14 day
[22] = tested on: CWR22R; test: Antitumor activity against human 22Rv1 cells xenografted in Balb/c nude mouse assessed as tumor growth inhibition at 10 mg/kg, ip administered once in two days for three times and measured 1 day after the end of treatment relative to control; type: functional; settings: 22Rv1, 168 h, time 7 day, read-out: TGI
[23] = Acute toxicity in ICR mouse assessed as liver damage at 183 to 960 mg/kg, iv administered as pluronic F127 formulation and measured for 14 days; type: organism-based; settings: in vivo, 336 h, dose 183-960 mg/kg, time 14 day
[24] = Chronic toxicity in Soviet Chinchilla rabbit assessed as increase in body weight at 12.21 mg/kg, iv administered as pluronic F127 formulation at 4 intervals for 21 days and observed 3 weeks post last injection relative to control; type: organism-based, Oryctolagus cuniculus; settings: in vivo, 2544 h, time 106 day
[25] = Chronic toxicity in Soviet Chinchilla rabbit assessed as increase in relative liver mass administered intravenously as pluronic F127 formulation at 4 intervals for 21 days and observed 3 weeks post last injection relative to control; type: tissue-based, Oryctolagus cuniculus; settings: in vivo, iv, 2544 h, time 106 day

CC(=O)O[C@@]12CO[C@@H]1C[C@H](O)[C@@]1(C)C(=O)[C@H](O)C3=C(C)[C@@H](OC(=O)[C@H](OC(=O)CCCc4cn(CCCNC(=O)[C@H](Cc5ccc(O)cc5)NC(=O)[C@H](Cc5ccccc5)NC(=O)CCC(=O)NCCCCCC(=O)N(CCCC[C@H](NC(=O)N[C@@H](CCC(=O)O)C(=O)O)C(=O)O)Cc5cccc(Cl)c5)nn4)[C@@H](NC(=O)OC(C)(C)C)c4ccccc4)C[C@@](O)([C@@H](OC(=O)c4ccccc4)[C@H]21)C3(C)C
Activity [1]: Toxic | inhibition in vivo at 20 mg/kg [2]: 85% | clearance [3]: 9.15 mL/min/kg | Activity [4]: Toxic | Activity [5]: Non-Toxic | solubility [6]: 130 µg/mL (≈ 66.6 µM) | AUC(0-inf) [7]: 289 µg·h/mL | inhibition in vivo at 30 mg/kg [8]: 81.7% | AUC(0-inf) [9]: 34 µg·h/mL | Activity [10]: 190.1% | inhibition in vivo at 10 mg/kg [11]: 87% | C0 at 72 h [12]: 153 µg/mL | MRT last at 72 h [13]: 7.4 h | Activity [14]: Toxic | half-life [15]: 0.997 h | AUC(0-t) at 72 h [16]: 253 µg·h/mL | remaining at 96 h [17]: 60% | Activity [18]: Toxic | Activity [19]: Toxic | Activity [20]: Toxic | Activity [21]: Toxic | inhibition in vivo at 10 mg/kg [22]: 84% | Activity [23]: Toxic | Activity [24]: Toxic | Activity [25]: Toxic
